Measured values: patent US6965033B2, “Bisamidate phosphonate prodrugs” (Metabasis Therapeutics, Inc., priority 1999, dated 2005)

Assays:
[1] = system: ZDF rat; assay: Chronic Oral Efficacy in the ZDF Rat; assay type: in vivo
Experimental: Methods: ZDF rats (10 weeks of age) were maintained either on powdered Purina 5008 rat chow (n=10) or the same powdered chow supplemented with 0.4% 50.6 (n=8). Blood glucose measurements were made as described in Example E at baseline and at weekly intervals thereafter for a total of 3 weeks. Statistical analysis was performed using the Student's t test. Means±standard error of the means are shown.

[2] = Metabolism of 50.6 in monkey plasma; assay type: in vitro ADME; details: 100 μM
Experimental: (§1) The metabolism of 50.6 was evaluated in rat, monkey, and human plasma by reverse phase HPLC with use of a Beckman Ultrasphere ODS column (4.6×150 mm) equipped with an Alltech All-Guard column. The column was equilibrated with 20 mM potassium phosphate, pH 6.2 and eluted with a linear gradient of 0-60% acetonitrile over 20 minutes at a flow rate of 1.5 mL/min and at a temperature of 40° C. UV absorbance was monitored at 300 nm. […] The metabolite formed in rat plasma was collected and subjected to mass spectrum analysis at Mass Consortium Corporation (San Diego, Calif.). […] This molecular weight is consistent with that of a monophosphoramidate intermediate. This intermediate is likely formed via a reaction mechanism in which the prodrug first undergoes full de-esterification followed by intramolecular, hydrolytic cleavage of one of the amino acyl substituents. Formation of the postulated monophosphoramidate intermediate was confirmed following the synthesis of a synthetic standard, Compound C. The standard had the identical HPLC and UV profile as the metabolite formed in plasma samples.

[3] = system: human hepatocytes; assay: Metabolism of 50.6 in Human Hepatocytes; assay type: in vitro ADME; details: 10 μM
Experimental: Cryopreserved human hepatocytes were obtained from In Vitro Technologies and thawed according to the vendor's recommendations. Cells were incubated at 37° C. in a Krebs-bicarbonate based buffer containing 50.6 at 10 μM. At various time points over the course of 4 hours, aliquots of cells were removed and extracted by addition of methanol to 60%. Cell extracts were clarified by centrifugation and analyzed by reverse phase HPLC with use of a Beckman Ultrasphere ODS column (4.6×150 mm) equipped with an Alltech All-Guard column. […]. Disappearance of 50.6 was rapid and essentially complete within 60 minutes of incubation. […] The initial rate of 3.1 formation was 24 pmol/million cells/minute. […]

[4] = Metabolism of 50.6 in rat plasma; assay type: in vitro ADME; details: 100 μM
Experimental: as §1

[5] = Metabolism of 50.6 in human plasma; assay type: in vitro ADME; details: 100 μM
Experimental: as §1

[6] = system: Zucker Diabetic Fatty (ZDF rat); assay: Acute Oral Efficacy in the ZDF Rat; assay type: in vivo
Experimental: Methods: ZDF rats were purchased from Genetics Inc (Indianapolis, Ind.) at 8 weeks of age. Animals were maintained under standard vivarium conditions and provided with Purina 5008 chow and water ad libitum. At 10-12 weeks of age, rats with blood glucose levels>500 mg/dl were selected and dosed orally either with vehicle (PEG 400), or prodrug (60 mg/kg). Blood glucose levels were monitored at regular intervals for 6 hours following dosing. Blood samples were taken from tail vein nicks and analyzed by means of a HemoCue glucose analyzer (Hemocue, Mission Viejo, Calif.). Statistical analysis was performed using the Student's t test. Means±standard error of the means are shown.

[7] = system: Human Liver Phosphoramidase; assay: Structure Activity Relationship of Human Liver Phosphoramidase (human liver homogenate); assay type: in vitro ADME; details: pH 7.4
Experimental: Human liver, purchased from the Anatomic Gift Foundation (Laurel, Md.), was homogenized in Krebs-bicarbonate buffer and clarified by a slow-speed centrifugation. Prodrug metabolism was evaluated in reaction mixtures containing human liver homogenate (4 mgs protein), 50 mM Tris-HCl, pH 7.4, 10 mM MgCl2, and 10 mM dithiothreitol. At various time intervals over the course of 2 hours, aliquots were removed from the reaction mixtures and deproteinated by addition of methanol to 60%. Following clarification by centrifugation, metabolites were analyzed by reverse phase HPLC with use of a Beckman Ultrasphere ODS column (4.6×150 mm) equipped with an Alltech All-Guard column. The column was equilibrated with 20 mM potassium phosphate, pH 6.2 and eluted with a linear gradient of 0-60% acetonitrile over 20 minutes at a flow rate of 1.5 mL/min and at a temperature of 40° C. UV absorbance was monitored at 300 nm. Most of the prodrugs evaluated were metabolized via a non-rate limiting, esterase-catalyzed step to their monophosphoramidate form within 5 minutes of incubation. The rate of phosphonic acid appearance was therefore essentially a reflection of the rate of the final […] cleavage step. Results for representative prodrugs for which the esterase-catalyzed step was non-rate limiting are shown below: […]

SMILES: CCOC(=O)[C@H](C)NP(=O)(N[C@@H](C)C(=O)OCC)c1ccc(-c2nc(N)sc2CC(C)C)o1 [Compound 50.6, 2-Amino-5-isobutyl-4-{2-[5-(N,N′-bis((S)-1-ethoxycarbonyl)ethyl)phosphonamido]furanyl}thiazole]
- Blood glucose, t21 days ([1]; 21 days on chow supplemented with 0.4% drug): 436 ± 41 mg/dL
- Blood Glucose, Tbaseline ([1]; baseline, chow with 0.4% drug group): 674 ± 20 mg/dL
- metabolites formed in plasma [2]: single metabolite
- time to essentially complete disappearance ([3]; cryopreserved human hepatocytes, 37° C.): ≤ 60 min
- initial rate of 3.1 formation ([3]; human hepatocytes): 24 pmol/million cells/minute
- metabolites detected ([3]; human hepatocytes): Compound C and 3.1
- metabolites formed in plasma [4]: single metabolite
- metabolites formed in plasma [5]: single metabolite
- Blood Glucose, T6h ([6]; 6 h after 60 mg/kg oral): 406 ± 12 mg/dL
- Blood Glucose, % Change ([6]; baseline to 6 h, 60 mg/kg oral): −25%
- Blood Glucose, Tbaseline ([6]; baseline, 60 mg/kg oral group): 544 ± 25 mg/dL
- Phosphoramidase Activity (Rate of 3.1 or 3.58 production, nmoles/mn/mg liver protein) [7]: 0.022 nmoles/mn/mg liver protein
